For experiment [1], the system named is ECHCG - barnyard grass. Briefly: Weed control in transplanted rice, Field trial #1. The class given is in vivo, Ehinochloa crus-galli. The note with it: 42 days after application. The protocol: (§1) Field trials were conducted in rice using standard herbicide small plot research methodology. Plot size was 2 m^2 using 1.6 m diameter rings placed into the paddy soil with capability for flooding with water to represent flooded rice culture. There were 3 replicates per treatment. Rice was Japonica type that was sown in rice nursery boxes as per normal cultural practices, and then transplanted 30 days after sowing into flooded rings. The rice crop was grown using normal cultural practices for fertilization, seeding, watering, flooding and maintenance to ensure good growth of the crop and the weeds under seeded rice conditions in Taiwan. Ring plot water depth was maintained at 3 to 7 cm depth after transplanting. Just prior to treatment application, plot water was drained to maintain saturated soil in ring plot. Treatments were applied by hand and water was re-induced to 3 to 7 cm depth 24 hours after application. All treatments in the field trials were applied by mixing the treatments with soil just prior to application by hand into the ring plots at 5 to 7 days after transplanting. Commercially available products of penoxsulam and butachlor were mixed in water and sprayed onto 45 grams of soil, which is equivalent to the area treated at an application rate of 225 kg soil/ha. […]

Experiment [2] deals with ECHCG - barnyard grass. Briefly: Weed control in transplanted rice, Field trial #2. It is filed as in vivo, Ehinochloa crus-galli. The note with it: 28 days after application. The procedure:
Field trials were conducted in rice using standard herbicide small plot research methodology. Plot size was 2 m^2 using 1.6 m diameter rings placed into the paddy soil with capability for flooding with water to represent flooded rice culture. There were 3 replicates per treatment. Rice was Japonica type that was sown in rice nursery boxes as per normal cultural practices, and then transplanted 30 days after sowing into flooded rings. The rice crop was grown using normal cultural practices for fertilization, seeding, watering, flooding and maintenance to ensure good growth of the crop and the weeds under seeded rice conditions in Taiwan. Ring plot water depth was maintained at 3 to 7 cm depth after transplanting. Just prior to treatment application, plot water was drained to maintain saturated soil in ring plot. Treatments were applied by hand and water was re-induced to 3 to 7 cm depth 24 hours after application. All treatments in the field trials were applied by mixing the treatments with soil just prior to application by hand into the ring plots at 5 to 7 days after transplanting. Commercially available products of penoxsulam and butachlor were mixed in water and sprayed onto 45 grams of soil, which is equivalent to the area treated at an application rate of 225 kg soil/ha. For each 2 m^2 plot, 45 g soil was mixed with the appropriate formulated product amounts to treat 2 m^2 to achieve the desired application rates based on unit area of application (hectare). Treatments were rated as compared to the untreated control plots. Visual weed control was rated on a scale of 0 to 100 percent, where 0 corresponds to no injury and 100 corresponds to complete kill. The treated plots and control plots were rated blind at various intervals after application. Ratings were based of Percent (%) Visual weed control, where 0 corresponds to no injury and 100 corresponds to complete kill. Colby's equation was used to determine the herbicidal effects expected from the mixtures (Colby, S. R. Calculation of the synergistic and antagonistic response of herbicide combinations. Weeds 1967 15, 20-22). The following equation was used to calculate the expected activity of mixtures containing two active ingredients, A and B: Expected=A+B−(A×B/100) A=observed efficacy of active ingredient A at the same concentration as used in the mixture; B=observed efficacy of active ingredient B at the same concentration as used in the mixture.

Experiment [3] deals with MOOVA - pickerel weed. Briefly: Weed control in transplanted rice, Field trial #2. It is filed as in vivo, Monochoria vaginalis. Particulars: 28 days after application. The protocol:
as §1

Experiment [4] concerns ISCRU - winklegrass. Briefly: Weed control in transplanted rice, Field trial #3. The class given is in vivo, Ischaemum rugosum. Particulars: 42 days after application. The procedure: as §1

The structures appear in SMILES notation.

For `COc1cnc(OC)n2nc(NS(=O)(=O)c3c(OCC(F)F)cccc3C(F)(F)F)nc12` [Penoxsulam], the “ECHCG Obs - percent control observed” value was 27% in experiment [1] (Penoxsulam 30 grams ai/ha), 0% in experiment [2] (Penoxsulam 3.8 grams ai/ha), 15% in experiment [2] (Penoxsulam 7.5 grams ai/ha) and 88% in experiment [2] (Penoxsulam 15 grams ai/ha). Besides, the “MOOVA Obs - percent control observed” value in experiment [3] (Penoxsulam 3.8 grams ai/ha) was determined as 75%. Also, the “ISCRU Obs - percent control observed” value in experiment [4] (Penoxsulam 13 grams ai/ha) is 1%.

For the molecule `CCCCOCN(C(=O)CCl)c1c(CC)cccc1CC` [Butachlor, N-butoxymethyl-2-chloro-2′,6′-diethylacetanilide], the “ECHCG Obs - percent control observed” value was 0% in experiment [1] (Butachlor 600 grams ai/ha) and 13% in experiment [2] (Butachlor 300 grams ai/ha). For the same molecule, the “MOOVA Obs - percent control observed” value in experiment [3] (Butachlor 300 grams ai/ha) is 26%. Moreover, in experiment [4] (Butachlor 300 grams ai/ha), the “ISCRU Obs - percent control observed” value was found to be 23%.

These data come from patent publication US20110190135A1, “SYNERGISTIC HERBICIDAL COMPOSITION CONTAINING PENOXSULAM AND BUTACHLOR” (DOW AGROSCIENCES LLC, priority 2010, published 2011).
